Experiments:
human recombinant CyPA = human recombinant CyPA (Homo sapiens, UniProt P62937); test: Semiautomated microtiter plate assay of rotamase activity inhibition, human recombinant CyPA; type: biochemical; details: Table B, value without asterisk: human recombinant CyPA
Description: Rotamase inhibition was determined using a semiautomated microtiter plate assay modification of the above described assay [see Küllertz et al., Clin. Chem. 44, 502-508 (1998)]. All dilutions of CyPA, peptide substrate, and chymotrypsin were made in 35 mM ice-cold HEPES buffer. Fifty μL of CyPA solution is added to 50 μL of the peptide substrate solution (Phe-Pro-Phe p-nitroanilide, 0.16 mg/ml) in a glass microtiter well plate (the concentration of human recombinant CyP being adjusted so that the reaction rate is increased by a factor of 3 as compared to an uncatalyzed control reaction wherein the peptide substrate is degraded by chymotrypsin alone, in the absence of CyPA and test compound). Using a Beckman Multimek™ 96 automated 96-channel pipettor, 5 μL of test compound solution, or a DMSO blank, were added to each well for a 30 minute preincubation at 4° C. One hundred μL of chymotrypsin solution (1 mg/mL) were added to each well and the absorbance at 390 nm versus time was monitored for 9-10 minutes using a BioRad Ultramark plate reader maintained at 4° C. and the rate constants were determined from the absorbance versus time data files.
IC50 values which were obtained for representative compounds are presented in the following Table B. The cyclophilin utilized was a human recombinant CyPA. […] While CyP A was used in these examples, other CyP proteins can be substituted.

[1] = biological target: T1, recombinant rat CyPA-GST fusion protein (Rattus norvegicus, UniProt P10111); test: Rotamase (PPIase) inhibition, chymotrypsin-coupled cuvette assay, rat CyPA-GST fusion protein; type: biochemical; details: Table A, value with asterisk: recombinant rat CyPA-GST fusion protein
T1 construct: made in house; host or cells: E. coli BL21
T1 sequence (P10111 2-164): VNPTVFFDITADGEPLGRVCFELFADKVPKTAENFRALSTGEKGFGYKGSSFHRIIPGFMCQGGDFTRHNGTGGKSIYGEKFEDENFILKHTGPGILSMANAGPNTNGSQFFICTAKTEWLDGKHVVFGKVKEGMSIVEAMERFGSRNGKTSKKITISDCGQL

Sequence of human recombinant CyPA (P62937 whole entry): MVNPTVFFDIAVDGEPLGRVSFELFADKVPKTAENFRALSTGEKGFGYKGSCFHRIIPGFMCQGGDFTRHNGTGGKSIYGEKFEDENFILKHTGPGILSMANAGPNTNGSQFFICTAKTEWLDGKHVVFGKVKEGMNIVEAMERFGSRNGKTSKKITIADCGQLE

Molecule	IC50 (human recombinant CyPA)	IC50 [1]
(5-(2-(2-5,6,7,8-tetrahydronaphthyl)ethyl)-3-{N-[3-(trifluoromethyl)phenyl]carbamoyl}phenyl)-N-[3-(trifluoromethyl)phenyl]formamide [Compound 23]	7850 nM	–
COC(=O)CCc1cc(NC(=O)Nc2cc(Cl)cc(Cl)c2)cc(NC(=O)Nc2cc(Cl)cc(Cl)c2)c1 [Compound 1, 3-{3,5-Bis-[3-(3,5-dichloro-phenyl)-ureido]-phenyl}-propionic acid methyl ester]	2940 nM	–
S=C(Nc1cc(Cl)cc(Cl)c1)Nc1cc(NC(=S)Nc2cc(Cl)cc(Cl)c2)cc(Nc2ccc(Br)cc2)c1 [Compound 11, [(3,5-dichlorophenyl)amino]{[3-({[(3,5-dichlorophenyl)amino]thioxomethyl}amino)-5-[(4-bromophenyl)amino]phenyl]amino}methane-1-thione]	807 nM	–
O=C(Nc1cccc(C(F)(F)F)c1)c1cc(Oc2ccc3ccccc3c2)cc(C(=O)Nc2cccc(C(F)(F)F)c2)c1 [Compound 17, (5-(2-naphthyloxy)-3-{N-[3-(trifluoromethyl)phenyl]carbamoyl}phenyl)-N-[3-(trifluoromethyl)phenyl]formamide]	1980 nM	–
O=S(=O)(Nc1cc(COc2ccc(Cl)c(Cl)c2)cc(NS(=O)(=O)c2cccc3ccccc23)c1)c1cccc2ccccc12 [Compound 7, 1,3-(1-Naphthalene)-N-[5-(3,4-dichloro-phenoxymethyl)-phenyl]-sulfonamide]	2110 nM	–
CC(C)(C)OC(=O)NCCCCCCNC(=O)c1cc(NC(=O)Nc2cc(Cl)cc(Cl)c2)cc(C(=O)Nc2cccc(C(F)(F)F)c2)c1 [Compound 4, {6-[3-[3-(3,5-Dichloro-phenyl)-ureido]-5-(3-trifluoromethyl-phenylcarbamoyl)-benzoylamino]hexyl}carbamic acid tert-butyl ester]	833 nM	–
(5-(2-(2-naphthyl)ethyl)-3-{N-[3-(trifluoromethyl)phenyl]carbamoyl}phenyl)-N-[3-(trifluoromethyl)phenyl]formamide [Compound 24]	7170 nM	–
O=C(Nc1cc(CNCc2cccc3ccccc23)cc(NC(=O)c2cccc(C(F)(F)F)c2)c1)c1cccc(C(F)(F)F)c1 [Compound 14, N-(5-{[(naphthylmethyl)amino]methyl}-3-{[3-(trifluoromethyl)phenyl]carbonyl-amino}phenyl)[3-(trifluoromethyl)phenyl]formamide]	15100 nM	–
O=C(Nc1cccc(C(F)(F)F)c1)c1cc(O)cc(C(=O)Nc2cccc(C(F)(F)F)c2)c1 [Compound 2, 5-Hydroxy-N,N′-bis-(3-trifluoromethyl-phenyl)-isophthalamide]	15900 nM	–
O=C(Nc1cc(COc2ccc(Cl)c(Cl)c2)cc(NC(=O)c2cc(Cl)cc(Cl)c2)c1)c1cc(Cl)cc(Cl)c1 [Compound 6, 1,3-(3,5-Dichlorophenyl)-N-[5-(3,4-dichlorophenoxymethyl)-phenyl]amide]	3790 nM	–
3-{3,5-Bis-[3-(3,5-dichlorophenyl)ureido]-phenyl}propionic acid methyl ester [Compound 5]	1300 nM	–
CS/C(=N\c1cc(Cl)cc(Cl)c1)Nc1cc(NC(=O)c2cc(Cl)cc(Cl)c2)cc(Nc2cccc(C(F)(F)F)c2)c1 [Compound 9, N-(5-{[2-aza-2-(3,5-dichlorophenyl)-1-methylthiovinyl]amino}-3-{[3-(trifluoromethyl)phenyl]amino}phenyl)(3,5-dichlorophenyl)formamide]	1580 nM	–
[(3,5-dichlorophenyl)amino]{[3-({[(3,5-dichlorophenyl) amino]thioxo-methyl}amino)-4-(3,5-dimethylpyrazolyl)phenyl]amino}methane-1-thione [Compound 39]	1120 nM	–
O=C(Nc1cc(CN2C(=O)c3ccccc3C2=O)cc(NC(=O)c2cccc(C(F)(F)F)c2)c1)c1cccc(C(F)(F)F)c1 [Compound 12, N-(5-[(1,3-dioxoisoindolin-2-yl)methyl]-3-{[3-(trifluoromethyl)phenyl]carbonylamino}phenyl)[3-(trifluoromethyl)phenyl]formamide]	7710 nM	–
O=C(Nc1cccc(C(F)(F)F)c1)c1cc(C(=O)Nc2cccc(C(F)(F)F)c2)cc(-c2cccc3ccccc23)c1 [Compound 3, 5-Naphthalen-1-yl-N,N′-bis-(3-trifluoromethyl-phenyl)isophthalamide]	3420 nM	–
O=C(Nc1cccc(C(F)(F)F)c1)c1cc(OCc2ccccc2)cc(OCc2ccccc2)c1 [Compound 8, 3,5-Di(benzyloxy)-3′-(trifluoromethyl)benzanilid]	4760 nM	–
(3,5-dichlorophenyl)-N-[5-({[(3,5-dichlorophenyl)amino]thioxomethyl}amino)-3-{[3-(trifluoromethyl)phenyl]amino }phenyl]formamide [Compound 10]	933 nM	–

Next, values leading:

IC50 (human recombinant CyPA)	IC50 [1]	Molecule
10000 nM	–	O=S(=O)(c1cc(Cl)cc(Cl)c1)N(c1ccc(Br)c(N(S(=O)(=O)c2cc(Cl)cc(Cl)c2)S(=O)(=O)c2cc(Cl)cc(Cl)c2)c1)S(=O)(=O)c1cc(Cl)cc(Cl)c1 [Compound 30, bis[(3,5-dichlorophenyl)sulfonyl](3-{bis[(3,5-dichlorophenyl)sulfonyl]amino)-4-bromophenyl)amine]
–	861 nM	O=C(Nc1cc(S(=O)(=O)NC(c2ccccc2)c2ccccc2)ccc1Cl)c1cc(Cl)cc(Cl)c1 [Compound 52, (3,5-Dichlorophenyl)-N-(5-{[(diphenylmethyl)amino]sulfonyl}-2-chlorophenyl)formamide]
392 nM	–	O=C(CCCCc1ccccc1)Nc1cc(Br)cc(C(=O)NNC(=S)Nc2ccc(Cl)c(Cl)c2)c1 [Compound 53, 1-{3-[(5-Phenyl)valeroylamino]-5-bromobenzoyl}-4-(3,4-dichlorophenyl) thiosemicarbazide]
–	10000 nM	O=C(Nc1cc(Cl)cc(Cl)c1)Nc1ccc(Br)c(N(S(=O)(=O)c2cc(Cl)cc(Cl)c2)S(=O)(=O)c2cc(Cl)cc(Cl)c2)c1 [Compound 29, N-(3-{bis[(3,5-dichlorophenyl)sulfonyl]amino}-4-bromophenyl)[(3,5-dichlorophenyl)amino]formamide]
–	3770 nM	COc1ccc(NC(=S)NC(=O)c2ccccc2)cc1COc1cc(Cl)cc(Cl)c1 [Compound 46, 1-[3-(3,5-Dichlorophenoxy)methyl-4-methoxyphenyl]-3-benzoylthiourea]
–	214 nM	O=C1c2ccccc2C(=O)N1Cc1cc(NC(=S)Nc2cc(Cl)cc(Cl)c2)cc(NC(=S)Nc2cc(Cl)cc(Cl)c2)c1 [Compound 27, 2-{[3,5-bis({[(3,5-dichlorophenyl)amino]thioxomethyl}amino)phenyl]methyl}iso-indoline-1,3-dione]
4710 nM	–	N#Cc1cccc(NC(=O)c2cc(OCc3ccc(-c4ccccc4C#N)cc3)cc(C(=O)Nc3cccc(C#N)c3)c2)c1 [Compound 22, 1-[4-(2-cyanophenyl)benzyl]loxy-3,5-bis-[(3-cyanophenyl)aminocarbonyl]benzene]
–	707 nM	S=C(Nc1cc(Cl)cc(Cl)c1)Nc1cc(OCc2cccc3ccccc23)ccc1Br [Compound 33, [(3,5-Dichlorophenyl)amino]{[2-bromo-5-(naphthylmethoxy)phenyl]amino}methane-1-thione]
–	914 nM	COc1ccc(NC(=O)Nc2cc(Cl)cc(Cl)c2)cc1OCc1cc(Cl)cc(Cl)c1 [Compound 28, 1-(3,5-Dichlorophenyl)-3-[3-(3,5-dichlorobenzyloxy)-4-methoxyphenyl]urea]
–	1020 nM	COc1ccc(NC(=O)C(c2ccccc2)c2ccccc2)cc1OCc1cccc2ccccc12 [Compound 49, N-[4-methoxy-3-(naphthylmethoxy)phenyl]-2,2-diphenylethanamide]
–	1220 nM	COc1ccc(NC(=O)c2cccc3ccccc23)cc1OCc1cccc2ccccc12 [Compound 47, N-[4-methoxy-3-(naphthylmethoxy)phenyl]naphthylformamide]
1320 nM	–	O=C(Nc1cccc(C(F)(F)F)c1)c1cc(C(=O)Nc2cccc(C(F)(F)F)c2)cc(-c2ccc3ccccc3c2)c1 [Compound 18, (5-(2-naphthyl)-3-{N-[3-(trifluoromethyl)phenyl]carbamoyl}phenyl)-N-[3-(trifluoromethyl)phenyl]formamide]
–	1550 nM	O=C(Nc1ccc(Cl)c(C(=O)c2ccccc2)c1)c1cc(Cl)cc(Cl)c1 [Compound 51, (3,5-Dichlorophenyl)-N-[4-chloro-3-(phenylcarbonyl)phenyl]formamide]
–	978 nM	COc1ccc(NS(=O)(=O)c2cccc3ccccc23)cc1OCCc1cccc2ccccc12 [Compound 50]
2800 nM	–	O=C(NCCc1ccc(Cl)c(Cl)c1)c1cc(COc2ccc(Cl)c(Cl)c2)cc(C(=O)NCCc2ccc(Cl)c(Cl)c2)c1 [Compound 19, 1-[(3,4-dichlorophenyl)oxymethy]-3,5-bis-{[2-(3,4-dichlorophenyl)ethyl]aminocarbonyl}benzene]
719 nM	–	S=C(Nc1cc(Cl)cc(Cl)c1)Nc1ccc(Nc2ccc(Oc3ccccc3)cc2)c(NC(=S)Nc2cc(Cl)cc(Cl)c2)c1 [Compound 40, [(3,5-dichlorophenyl)amino]{[3-({[(3,5-dichlorophenyl)amino]thioxomethyl}amino)-4-[(4-phenoxyphenyl)amino]phenyl]amino}methane-1-thione]

Source: patent US6656971B2, “Trisubstituted carbocyclic cyclophilin binding compounds and their use” (Guilford Pharmaceuticals Inc., priority 2001, dated 2003)
